Data from US20110070232A1, “Combination Therapy with an Antitumor Alkaloid” (Pharma Mar, S.A., priority 2008, published 2011).
Converted amounts (≈) assume the structure as drawn. Where two headings read alike, the source gives them in different places.

Tests used:
[1] = tested on: HGC-27 human gastric carcinoma cell line; assay: IC50 determination, MTS assay, 72 h (Example 1); format: cell-based; settings: Homo sapiens, 72 hours of drug exposure, read-out: IC50
Protocol: (§1) The human gastric carcinoma cell lines selected for this assay were the following: Hs746T, HGC-27, and AGS cell lines. Hs746T and AGS cell lines were grown in Dulbecco's modified Eagle's medium (DMEM) supplemented with 10% Fetal Bovine Serum (FBS), 1.5 g/L sodium bicarbonate, 4.5 g/L glucose and 4 mM L-glutamine. HGC-27 cell line was grown in Iscove's modified Dulbecco's medium (IMDM) supplemented with 20% FBS and 2 mM L-glutamine.
(§2) The day before plating, the cells were fed with fresh, complete growth media. On the harvest (plating) day, cells were counted by Trypan Blue exclusion staining method.
(§3) Cells were harvested and seeded in 96 well microtiter plates at 10,000 cells density in 150 μL of media and incubated for 24 hours to allow the cells to attach before drug addition. To collect reference data, the MTS assay was done on untreated cells at time 0 (after incubation of cells for 24 hours).
(§4) The cytotoxic effect was measured by the MTS Assay (Tetrazolium), which is a colorimetric method for determining the number of viable cells. After the incubation period (24 hours for the Day 0 plate and 72 hours for the Test and Control plates), 25 μL of MTS+PMS solution was added to each microtiter well and incubated for 4 hours at 37° C. Plates were then removed from incubator and placed on plate shaker for 5 minutes (covered with aluminum foil for protection from light). Optical densities were read at 490 nm on spectrophotometer plate reader.
(§5) IC50 values were calculated from an average of two to four assays for each of the test agents.

[2] = tested on: AGS human gastric carcinoma cell line; assay: IC50 determination, MTS assay, 72 h (Example 1); format: cell-based; settings: Homo sapiens, 72 hours of drug exposure, read-out: IC50
Protocol: as §1, §2, §3, §4, §5

[3] = tested on: Hs746T human gastric carcinoma cell line; assay: IC50 determination, MTS assay, 72 h (Example 1); format: cell-based; settings: Homo sapiens, 72 hours of drug exposure, read-out: IC50
Protocol: as §1, §2, §3, §4, §5

Hs746T tumors = format: in vivo, mice; settings: for % Inhibition: PM00104 0.9 and doxorubicin 6 mg/kg/day
Source text: (§6) Female athymic nude mice (Harlan Sprague Dawley, Madison, Wis.) were utilized for all experiments. Animals were housed in ventilated rack caging with food and water ad libitum. The mice were acclimated for at least 5 days prior to tumor implantation with a tumor cell suspension.
The tumor model used in these studies was Hs746T cell line, which was obtained from the ATCC (Manassas, Va.).
Treatments were initiated on DPI 15.
5-FU was provided as a solution which was further diluted with water for injection.
(§7) Tumor size measurements were recorded twice weekly from the treatment initiation until the termination of the study.
(§8) Mean, standard deviation and standard error of the mean were determined for tumor volume for all animal groups at all assessments. Student's t test was performed on tumor volumes at each measurement day, including at the end of the study, to determine whether there were any statistically significant differences between combination treatment groups and single monotherapy treatment groups.

MRI-H-254 tumors = format: in vivo, mice
Protocol: as §6, with “with” for “with a”, “fragments. The Vehicle Control group contained 11 mice, groups 2-6 contained 8 mice/group, and the rest of groups contained 9 mice/group.” for “cell suspension.”
This cell line was grown and implanted to the animals as described in Example 11.
Tumor measurements were determined as disclosed in Example 4. […] Treatments were initiated on DPI 17.
PM00104 was provided in the form of vials of lyophilized PM00104 powder which was reconstituted with water for injection.
as §7, §8
The definition and criteria for the evaluation of potentiation and the degree of additivity for the combination therapy were the same as those disclose in Example 4.

[4] = tested on: MCF-7 (breast cancer) cell line; assay: IC50 determination, MIT (tetrazolium) assay, 72 h (Example 18); format: cell-based; settings: Homo sapiens, MCF7; MCF-7, 72 hours of drug exposure
Protocol: (§9) Before plating, cell cultures were trypsinized and cell number estimated using an automated flow cytometer.
(§10) Cells were harvested and seeded in 96 well microtiter plates at the appropriate cell density (5,000-10,000 cells) in 150 μL of media and incubated for 24 hours to allow the cells to attach before drug addition.
(§11) After the incubation period (72 hours), 50 μL of MIT solution was added to each microtiter well and incubated for further 8 hours at 37° C. The culture medium was then removed and 50 μl, of DMSO were added to dissolve the MIT crystals. Optical densities were read at 540 nm on spectrophotometer microplate reader.
as §5

[5] = tested on: MDA-MB-231 (breast cancer) cell line; assay: as above; format: cell-based; settings: Homo sapiens; MDA-MB-231, 72 hours of drug exposure
Protocol: as §9, §10, §11, §5

[6] = PM00104 0.9, 5-FU 50 (DPI 15) then 100 (DPI 22 & 29), irinotecan 20, doxorubicin 6 mg/kg/day
[7] = PM00104 0.90 IV, doxorubicin 6 IP, paclitaxel 12.5 IP mg/kg/day (G2, G5, G6, G7, G8)

COc1cccc2c1C(=O)c1c(O)c3c(c(O)c1C2=O)C[C@@](O)(C(=O)CO)C[C@@H]3O[C@H]1C[C@H](N)[C@H](O)[C@H](C)O1 [Doxorubicin, doxorubicin]
IC50 [1]: 0.177 µg/mL (≈ 0.326 µM)
IC50 [2]: 0.156 µg/mL (≈ 0.287 µM)
IC50 [3]: 8.97 µg/mL (≈ 16.5 µM)
% T/C on day 15 (Hs746T tumors; [6]): 104.2%
% T/C on day 19 (Hs746T tumors; [6]): 79.8%
% T/C on day 26 (Hs746T tumors; [6]): 48.9%
% T/C on day 29 (Hs746T tumors; [6]): 40.2%
% T/C on day 33 (Hs746T tumors; [6]): 51.4%
% Inhibition (Hs746T tumors; day 15): −4.2%
% Inhibition (Hs746T tumors; day 19): 20.2%
% Inhibition (Hs746T tumors; day 22): 52.6%
% Inhibition (Hs746T tumors; day 26): 51.1%
% Inhibition (Hs746T tumors; day 29): 59.8%
% Inhibition (Hs746T tumors; day 33): 48.6%
% T/C on day 17 (MRI-H-254 tumors; [7]): 98.2%
% T/C on day 20 (MRI-H-254 tumors; [7]): 93.5%
% T/C on day 24 (MRI-H-254 tumors; [7]): 76.2%
% T/C on day 27 (MRI-H-254 tumors; [7]): 64.4%
% T/C on day 32 (MRI-H-254 tumors; [7]): 56.3%
% T/C on day 35 (MRI-H-254 tumors; [7]): 24.8%
% T/C on day 39 (MRI-H-254 tumors; [7]): 19.7%
% T/C on day 47 (MRI-H-254 tumors; [7]): 15.7%
% Inhibition (MRI-H-254 tumors; day 14, PM00104 0.23, doxorubicin 6, paclitaxel 12.5 mg/kg/day): 1.8%
% Inhibition (MRI-H-254 tumors; day 14, PM00104 0.45, doxorubicin 6, paclitaxel 12.5 mg/kg/day): 1.8%
% Inhibition (MRI-H-254 tumors; day 14, PM00104 0.9 and doxorubicin 6 mg/kg/day): 1.8%
% Inhibition (MRI-H-254 tumors; day 20, PM00104 0.23, doxorubicin 6, paclitaxel 12.5 mg/kg/day): 6.5%
% Inhibition (MRI-H-254 tumors; day 20, PM00104 0.45, doxorubicin 6, paclitaxel 12.5 mg/kg/day): 6.5%
% Inhibition (MRI-H-254 tumors; day 20, PM00104 0.9 and doxorubicin 6 mg/kg/day): 6.5%
% Inhibition (MRI-H-254 tumors; day 24, PM00104 0.23, doxorubicin 6, paclitaxel 12.5 mg/kg/day): 23.8%
% Inhibition (MRI-H-254 tumors; day 24, PM00104 0.45, doxorubicin 6, paclitaxel 12.5 mg/kg/day): 23.8%
% Inhibition (MRI-H-254 tumors; day 24, PM00104 0.9 and doxorubicin 6 mg/kg/day): 23.8%
% Inhibition (MRI-H-254 tumors; day 27, PM00104 0.23, doxorubicin 6, paclitaxel 12.5 mg/kg/day): 35.6%
% Inhibition (MRI-H-254 tumors; day 27, PM00104 0.45, doxorubicin 6, paclitaxel 12.5 mg/kg/day): 35.6%
% Inhibition (MRI-H-254 tumors; day 27, PM00104 0.9 and doxorubicin 6 mg/kg/day): 35.6%
% Inhibition (MRI-H-254 tumors; day 32, PM00104 0.23, doxorubicin 6, paclitaxel 12.5 mg/kg/day): 43.7%
% Inhibition (MRI-H-254 tumors; day 32, PM00104 0.45, doxorubicin 6, paclitaxel 12.5 mg/kg/day): 43.7%
% Inhibition (MRI-H-254 tumors; day 32, PM00104 0.9 and doxorubicin 6 mg/kg/day): 43.7%
% Inhibition (MRI-H-254 tumors; day 35, PM00104 0.23, doxorubicin 6, paclitaxel 12.5 mg/kg/day): 75.2%
% Inhibition (MRI-H-254 tumors; day 35, PM00104 0.45, doxorubicin 6, paclitaxel 12.5 mg/kg/day): 75.2%
% Inhibition (MRI-H-254 tumors; day 35, PM00104 0.9 and doxorubicin 6 mg/kg/day): 75.2%
% Inhibition (MRI-H-254 tumors; day 39, PM00104 0.23, doxorubicin 6, paclitaxel 12.5 mg/kg/day): 80.3%
% Inhibition (MRI-H-254 tumors; day 39, PM00104 0.45, doxorubicin 6, paclitaxel 12.5 mg/kg/day): 80.3%
% Inhibition (MRI-H-254 tumors; day 39, PM00104 0.9 and doxorubicin 6 mg/kg/day): 80.3%
% Inhibition (MRI-H-254 tumors; day 47, PM00104 0.23, doxorubicin 6, paclitaxel 12.5 mg/kg/day): 84.3%
% Inhibition (MRI-H-254 tumors; day 47, PM00104 0.9 and doxorubicin 6 mg/kg/day): 84.3%
IC50 [4]: 4000 nM
IC50 [5]: 1900 nM
